The values below are quoted from earlier work in patent US20230002726A1, “METHODS OF IN-OVO SCREENING OF ANTI-CANCER THERAPIES” (ICHILOV TECH LTD., priority 2020, published 2023).

The series has as its system MSI-low tumors. The conditions noted are these: stated as known; cited from earlier work.

In the case of Pembrolizumab [Keytruda], the known effectiveness entry is recorded as “ineffective”.
